Test results: patent US4759929A, “Novel treatment” (Cabinet Harle & Phelip, priority 1987, dated 1988)

Assays:
[1] = molecular target: SAIDS virus reverse transcriptase (Simian retrovirus SRV-1, UniProt P04025); assay: Reverse transcriptase assay, SAIDS virus; assay type: biochemical, Simian AIDS (SAIDS) virus; details: for Percent inhibition / p. mole incorporated: SAIDS virus; for p. mole incorporated: control 0.43
Description: Simian AIDS (SAIDS) virus producing cells were provided by Murray Gardner, M.D. and supernatants of cell cultures were concentrated using polyethylene glycol (PEG) 10 percent precipitation. The precipitate was purified on a 20 to 60 percent sucrose gradient (50,000 g, 2.5 hours). Reverse transcriptase assays (see legend Table I) were performed on each fraction from the collected gradient. Maximum RT activity was found at a density of 1.18.
(§1) Assay mixtures are indicated in the legend of Table I. The reaction was stopped by treating the mixtures with sodium pyrophosphate and trichloracetic acid. The results are given as picomoles of tritiated deoxyribonucleotides monophosphate incorporated into DNA after 1 hour at 37° C.
(§2) HPA 23 inhibition of reverse transcriptase of SAIDS virus and LAV.
(§3) Reaction mixture (50 μl) contains: Tris 50 mM pH 7.9, 5 mM MgCl2,
(§4) OD/ml Oligo dT 12-18, and 200 pM ^3 HTTP (25 Ci/mM).

[2] = molecular target: T1, LAV reverse transcriptase (Human immunodeficiency virus type 1 group M subtype B, UniProt P03367); assay: Reverse transcriptase assay, LAV virus (non purified RT); assay type: biochemical, Lymphadenopathy associated virus (LAV); details: for ID50: LAV virus (non purified RT), 1 hour at 37° C.; for Percent inhibition / p. mole incorporated: LAV virus; for p. mole incorporated: control 0.13
T1 construct: made in house; host or cells: LAV virions, PEG concentrated and sucrose gradient purified
Description: Lymphadenopathy associated virus (LAV) was purified. Briefly, after clarification, the virus was concentrated by PEG (10 percent), and then centrifuged for 1.5 hours at 55,000 g (IEC type SB 498 rotor) on a 10 to 60 percent sucrose gradient. Reverse transcriptase assays were performed on each fraction and the maximum RT activity was found at a density of 1.16 and corresponded to the purified virus fraction.
as §1, §2, §3, §4

[3] = molecular target: T2, LAV purified reverse transcriptase (Human immunodeficiency virus type 1 group M subtype B, UniProt P03367); assay: Reverse transcriptase assay, LAV purified RT; assay type: biochemical, Lymphadenopathy associated virus (LAV); details: for p. mole incorporated: control 0.11
T2 construct: made in house
Description: LAV RT was purified. Briefly, 10^9 LAV infected cells were washed two times in PBS, resuspended in Tris 50 mM (pH 7.5) KCl 500 mM, ethylene diamine tetracetic acid (EDTA) 0.1 mM, dithiothreitol 1 mM and glycerol 10 percent, and frozen in liquid nitrogen. After incubation with Triton X100 0.01 percent at 37° C. (15 Min), cell homogenates were centrifuged at 100,000 g for one hour and the supernatant dialyzed six hours (KCl 100 mM). The dialyzate was chromatographed on a phosphocellulse column. RT and DNA polymerases were eluted from the column with a 0.1M to 1M KCl gradient.
as §1, §2, §3, §4

[4] = molecular target: T2, LAV purified reverse transcriptase; assay: Lineweaver-Burk kinetics, varying poly A oligo dT12-18 template primer concentration; assay type: biochemical, Lymphadenopathy associated virus (LAV); details: for HPA23 inhibition: LAV purified RT, FIG. 1 legend
Description: The results of the Lineweaver-Burk plots of the effects of varying concentration of poly An oligo dT12-18 at two different HPA23 concentrations are summarized in FIG. 1. In the experimental conditions, kinetic enzymatic parameters are: KM=2.18 nM of polyA oligo dT, Vmax=0.02 pM of 3 HTMP incorporated sec^-1. […] The interaction of HPA23 with the template primer-enzyme complex should take place at the binding site of the template primer.
Lineweaver-Burk representation of the influence of poly A oligo T12-18 template concentration on the inhibition by HPA23 of LAV purified reverse transcriptase
A: picomoles of ^3 H TMP incorporated in five minutes at 37° C.
B: template primer concentration (OD ml^-1)
: control (no inhibition)
: inhibition dose corresponds to 65 percent HPA23 inhibition (19 μg/ml)
inhibition dose corresponds to 80 percent HPA23 inhibition (40 μg/ml)
Each plot-point is the mean of three experiments.

[5] = molecular target: pancreatic DNase (Bos taurus, UniProt P00639); assay: Inhibition of pancreatic DNase (unpublished results); assay type: biochemical
[6] = molecular target: pancreatic RNase (Bos taurus, UniProt P61823); assay: Inhibition of pancreatic RNase (unpublished results); assay type: biochemical
[7] = molecular target: E. Coli RNase H (Escherichia coli, UniProt P0A7Y4); assay: Inhibition of E. Coli RNase H (unpublished results); assay type: biochemical
[8] = system: cell growth; assay: Inhibition of cell growth; assay type: cell-based
[9] = Pharmacokinetic studies in patient, I.V bolus infusion; assay type: in vivo, human; details: patient 1; I.V bolus infusion (about two minutes)
[10] = system: T4 + Lymphocytes; assay: T4+ lymphocytes number in treated patients; assay type: in vivo, human; details: four patients; after therapy
[11] = system: AIDS or related syndrome; assay: Clinical features after HPA23 treatment; assay type: in vivo, human
[12] = system: E. Coli DNA polymerases; details: known; cited from earlier work
[13] = molecular target: E. Coli RNA polymerases (Escherichia coli, UniProt P0A8T7+P0A8V2); details: known; cited from earlier work
[14] = system: mammalian cellular DNA polymerases; details: known; cited from earlier work
[15] = molecular target: mouse α DNA polymerase (Mus musculus, UniProt P33609); details: required doses much higher than those inhibiting reverse transcriptase; cited from earlier work
[16] = molecular target: β DNA polymerase (Mus musculus, UniProt Q8K409); details: cited from earlier work
[17] = system: MLV reverse transcriptase; details: previously described; cited from earlier work
[18] = system: Friend viruses and the plasma variant of Chirigos virus; details: in vivo; cited from earlier work
[19] = system: encephalomyocarditis; details: mice; cited from earlier work
[20] = system: lymphatic choriomeningitis virus; details: adult mice acutely infected; cited from earlier work
[21] = system: spontaneous mammary tumors; details: C3 HBi mice; cited from earlier work
[22] = system: scrapie; details: mice infected with scrapie; cited from earlier work
[23] = system: natural killer (NK) and killer cells (ADCC) function; details: cited from earlier work
[24] = system: LAV; assay: Isolation of LAV from peripheral blood T cell cultures and cocultures of treated patients (RT activity in supernatant)

Sequence of SAIDS virus reverse transcriptase (P04025 913-1497): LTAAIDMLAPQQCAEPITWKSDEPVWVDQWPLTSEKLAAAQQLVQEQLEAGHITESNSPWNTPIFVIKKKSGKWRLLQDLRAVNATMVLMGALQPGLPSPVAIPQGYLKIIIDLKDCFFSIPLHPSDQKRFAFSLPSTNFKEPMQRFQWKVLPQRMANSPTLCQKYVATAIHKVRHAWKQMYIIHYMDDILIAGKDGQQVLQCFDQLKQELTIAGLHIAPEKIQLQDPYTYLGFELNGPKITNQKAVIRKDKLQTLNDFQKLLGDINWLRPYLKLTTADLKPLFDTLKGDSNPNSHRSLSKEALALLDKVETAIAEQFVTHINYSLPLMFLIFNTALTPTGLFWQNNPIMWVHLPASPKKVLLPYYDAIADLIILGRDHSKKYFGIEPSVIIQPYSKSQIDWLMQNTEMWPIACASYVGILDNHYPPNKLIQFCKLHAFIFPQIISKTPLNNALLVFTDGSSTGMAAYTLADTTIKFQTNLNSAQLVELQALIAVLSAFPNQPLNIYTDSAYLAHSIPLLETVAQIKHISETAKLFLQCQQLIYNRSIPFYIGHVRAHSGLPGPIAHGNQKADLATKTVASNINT
Sequence of pancreatic DNase (P00639 23-282): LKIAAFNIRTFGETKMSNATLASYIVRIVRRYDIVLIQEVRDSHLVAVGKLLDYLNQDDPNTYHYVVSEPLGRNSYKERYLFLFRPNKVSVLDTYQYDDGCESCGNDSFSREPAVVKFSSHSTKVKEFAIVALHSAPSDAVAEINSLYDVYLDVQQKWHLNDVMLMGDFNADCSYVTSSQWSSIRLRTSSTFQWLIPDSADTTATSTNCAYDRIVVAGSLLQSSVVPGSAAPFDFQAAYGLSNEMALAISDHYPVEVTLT
Sequence of E. Coli RNA polymerases (P0A8V2 whole entry): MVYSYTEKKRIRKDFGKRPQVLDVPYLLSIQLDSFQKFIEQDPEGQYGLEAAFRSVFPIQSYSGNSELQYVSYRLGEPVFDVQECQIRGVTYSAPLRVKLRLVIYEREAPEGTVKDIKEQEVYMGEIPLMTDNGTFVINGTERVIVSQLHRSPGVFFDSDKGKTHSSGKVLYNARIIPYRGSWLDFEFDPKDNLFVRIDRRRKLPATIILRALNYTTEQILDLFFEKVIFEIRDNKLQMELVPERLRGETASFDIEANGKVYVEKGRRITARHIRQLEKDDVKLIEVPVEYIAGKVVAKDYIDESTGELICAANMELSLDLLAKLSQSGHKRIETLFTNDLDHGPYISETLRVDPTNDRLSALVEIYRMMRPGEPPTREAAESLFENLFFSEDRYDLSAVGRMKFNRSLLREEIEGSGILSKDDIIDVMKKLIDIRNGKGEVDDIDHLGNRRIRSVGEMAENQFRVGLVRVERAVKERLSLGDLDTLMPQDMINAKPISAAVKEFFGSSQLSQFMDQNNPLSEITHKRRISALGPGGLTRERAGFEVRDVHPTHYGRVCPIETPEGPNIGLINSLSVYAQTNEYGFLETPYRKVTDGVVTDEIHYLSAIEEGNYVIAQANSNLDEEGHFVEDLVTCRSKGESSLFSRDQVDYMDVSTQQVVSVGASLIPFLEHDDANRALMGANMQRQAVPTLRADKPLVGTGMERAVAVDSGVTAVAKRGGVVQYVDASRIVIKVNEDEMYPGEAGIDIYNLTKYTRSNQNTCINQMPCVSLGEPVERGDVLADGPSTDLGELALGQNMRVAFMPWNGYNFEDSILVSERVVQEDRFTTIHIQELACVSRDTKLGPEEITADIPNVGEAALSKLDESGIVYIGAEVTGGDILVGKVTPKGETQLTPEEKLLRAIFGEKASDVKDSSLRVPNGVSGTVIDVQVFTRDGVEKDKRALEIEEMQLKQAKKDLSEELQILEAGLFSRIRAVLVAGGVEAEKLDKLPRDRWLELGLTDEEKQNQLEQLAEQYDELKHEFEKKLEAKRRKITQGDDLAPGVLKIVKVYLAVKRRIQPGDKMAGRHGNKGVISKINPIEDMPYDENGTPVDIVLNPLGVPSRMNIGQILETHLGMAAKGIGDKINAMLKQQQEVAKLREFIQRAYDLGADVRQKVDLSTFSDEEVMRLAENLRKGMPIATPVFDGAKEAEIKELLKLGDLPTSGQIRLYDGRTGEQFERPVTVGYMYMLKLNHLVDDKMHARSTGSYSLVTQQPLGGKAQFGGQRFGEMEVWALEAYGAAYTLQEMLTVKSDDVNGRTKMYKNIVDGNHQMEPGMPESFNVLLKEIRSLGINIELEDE
Sequence of E. Coli RNA polymerases (P0A8T7 whole entry): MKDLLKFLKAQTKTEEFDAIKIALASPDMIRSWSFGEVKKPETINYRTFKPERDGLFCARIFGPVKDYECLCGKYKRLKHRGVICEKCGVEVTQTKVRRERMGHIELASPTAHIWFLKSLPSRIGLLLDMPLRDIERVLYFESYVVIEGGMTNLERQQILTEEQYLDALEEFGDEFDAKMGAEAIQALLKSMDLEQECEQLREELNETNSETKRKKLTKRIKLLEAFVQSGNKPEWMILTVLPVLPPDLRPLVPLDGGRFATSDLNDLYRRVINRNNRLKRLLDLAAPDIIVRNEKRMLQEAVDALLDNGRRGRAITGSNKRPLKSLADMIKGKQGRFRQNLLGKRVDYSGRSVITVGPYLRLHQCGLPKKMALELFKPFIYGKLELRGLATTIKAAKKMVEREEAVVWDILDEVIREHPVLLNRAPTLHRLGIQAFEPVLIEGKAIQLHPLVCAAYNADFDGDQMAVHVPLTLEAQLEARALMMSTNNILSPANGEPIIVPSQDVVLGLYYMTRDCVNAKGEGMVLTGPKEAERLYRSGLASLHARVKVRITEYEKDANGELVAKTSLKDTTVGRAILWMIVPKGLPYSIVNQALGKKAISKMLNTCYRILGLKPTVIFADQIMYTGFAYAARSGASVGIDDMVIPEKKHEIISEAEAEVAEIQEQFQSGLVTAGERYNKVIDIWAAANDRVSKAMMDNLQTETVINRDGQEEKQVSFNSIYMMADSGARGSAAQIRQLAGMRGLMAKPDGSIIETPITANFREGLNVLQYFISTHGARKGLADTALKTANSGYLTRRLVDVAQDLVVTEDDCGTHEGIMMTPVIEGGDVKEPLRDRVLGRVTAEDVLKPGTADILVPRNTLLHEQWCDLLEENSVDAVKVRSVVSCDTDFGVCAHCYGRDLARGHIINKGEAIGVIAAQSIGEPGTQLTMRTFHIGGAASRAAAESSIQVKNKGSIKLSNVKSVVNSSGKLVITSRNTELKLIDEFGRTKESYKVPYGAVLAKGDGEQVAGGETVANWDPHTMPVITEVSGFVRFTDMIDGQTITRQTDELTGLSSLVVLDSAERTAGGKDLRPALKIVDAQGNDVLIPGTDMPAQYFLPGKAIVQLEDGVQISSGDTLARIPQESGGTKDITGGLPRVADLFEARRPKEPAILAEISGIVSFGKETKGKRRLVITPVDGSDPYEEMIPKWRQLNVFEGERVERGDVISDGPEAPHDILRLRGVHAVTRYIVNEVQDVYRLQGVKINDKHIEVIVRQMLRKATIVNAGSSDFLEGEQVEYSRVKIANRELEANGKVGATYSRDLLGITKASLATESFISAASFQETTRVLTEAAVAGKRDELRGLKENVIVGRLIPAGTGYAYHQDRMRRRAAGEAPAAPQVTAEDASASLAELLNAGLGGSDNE
Sequence of E. Coli RNA polymerases (P0A7Z4 whole entry partner): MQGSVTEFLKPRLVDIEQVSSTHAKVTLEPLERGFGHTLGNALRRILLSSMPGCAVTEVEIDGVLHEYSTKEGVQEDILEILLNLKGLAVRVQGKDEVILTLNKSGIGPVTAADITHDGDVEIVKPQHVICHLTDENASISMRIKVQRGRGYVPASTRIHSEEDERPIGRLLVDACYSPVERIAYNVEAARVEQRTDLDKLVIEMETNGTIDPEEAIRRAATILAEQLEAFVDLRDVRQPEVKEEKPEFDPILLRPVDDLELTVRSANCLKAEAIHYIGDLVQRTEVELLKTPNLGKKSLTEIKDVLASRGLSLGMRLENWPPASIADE
Sequence of E. Coli RNA polymerases (P0A800 whole entry partner): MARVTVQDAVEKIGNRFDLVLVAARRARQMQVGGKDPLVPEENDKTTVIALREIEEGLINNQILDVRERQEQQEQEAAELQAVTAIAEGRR
Sequence of pancreatic RNase (P61823 27-150): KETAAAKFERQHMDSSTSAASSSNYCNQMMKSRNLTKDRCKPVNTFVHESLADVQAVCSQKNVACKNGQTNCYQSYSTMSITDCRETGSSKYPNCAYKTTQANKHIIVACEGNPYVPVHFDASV
Sequence of E. Coli RNase H (P0A7Y4 whole entry): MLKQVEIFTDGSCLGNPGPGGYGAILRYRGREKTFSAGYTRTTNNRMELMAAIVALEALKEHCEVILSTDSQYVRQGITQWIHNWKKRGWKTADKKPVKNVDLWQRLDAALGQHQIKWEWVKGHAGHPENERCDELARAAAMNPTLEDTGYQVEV

Ammonium-9-antimonio-III-21-tungsto-VII-sodate [HPA 23]
inhibition mechanism ([1]; SAIDS (monkey) virus enzyme, kinetic studies): competitive inhibition
ID50 ([1]; SAIDS virus RT, 1 hour at 37° C.): 1.1 µg/mL
Percent inhibition ([1]; inhibitor 0.5 μg/ml): 21%
p. mole incorporated ([1]; inhibitor 0.5 μg/ml): 0.34 p. mole
Percent inhibition ([1]; inhibitor 1 μg/ml): 35%
p. mole incorporated ([1]; inhibitor 1 μg/ml): 0.28 p. mole
Percent inhibition ([1]; inhibitor 2.5 μg/ml): 80%
p. mole incorporated ([1]; inhibitor 2.5 μg/ml): 0.09 p. mole
Percent inhibition ([1]; inhibitor 5 μg/ml): 94.5%
p. mole incorporated ([1]; inhibitor 5 μg/ml): 0.024 p. mole
Percent inhibition ([1]; inhibitor 10 μg/ml): 99.5%
p. mole incorporated ([1]; inhibitor 10 μg/ml): 0.0025 p. mole
Percent inhibition ([1]; inhibitor 25 μg/ml): 100%
p. mole incorporated ([1]; inhibitor 25 μg/ml): 0 p. mole
ID50 ([2]; 60 min): 30.5 µg/mL
ID50 ([2]; listed as HPA23, 60 min): 30 µg/mL
Percent inhibition ([2]; inhibitor 10 μg/ml): 2.4%
p. mole incorporated ([2]; inhibitor 10 μg/ml): 0.127 p. mole
Percent inhibition ([2]; inhibitor 25 μg/ml): 18.6%
p. mole incorporated ([2]; inhibitor 25 μg/ml): 0.013 p. mole
Percent inhibition ([2]; inhibitor 50 μg/ml): 84.4%
p. mole incorporated ([2]; inhibitor 50 μg/ml): 0.098 p. mole
Percent inhibition ([2]; inhibitor 60 μg/ml): 100%
p. mole incorporated ([2]; inhibitor 60 μg/ml): 0 p. mole
ID50 ([3]; 1 hour at 37° C.): 11 µg/mL
Percent inhibition ([3]; inhibitor 0.5 μg/ml): 4.5%
p. mole incorporated ([3]; inhibitor 0.5 μg/ml): 0.105 p. mole
Percent inhibition ([3]; inhibitor 1 μg/ml): 8.2%
p. mole incorporated ([3]; inhibitor 1 μg/ml): 0.101 p. mole
Percent inhibition ([3]; inhibitor 5 μg/ml): 33.6%
p. mole incorporated ([3]; inhibitor 5 μg/ml): 0.073 p. mole
Percent inhibition ([3]; inhibitor 10 μg/ml): 43.6%
p. mole incorporated ([3]; inhibitor 10 μg/ml): 0.062 p. mole
Percent inhibition ([3]; inhibitor 20 μg/ml): 61.8%
p. mole incorporated ([3]; inhibitor 20 μg/ml): 0.042 p. mole
Percent inhibition ([3]; inhibitor 30 μg/ml): 70.2%
p. mole incorporated ([3]; inhibitor 30 μg/ml): 0.032 p. mole
Percent inhibition ([3]; inhibitor 60 μg/ml): 94%
p. mole incorporated ([3]; inhibitor 60 μg/ml): 0.007 p. mole
Percent inhibition ([3]; inhibitor 100 μg/ml): 100%
p. mole incorporated ([3]; inhibitor 100 μg/ml): 0 p. mole
inhibition mechanism ([4]; LAV RT, versus template primer poly A oligo dT12-18): competitive inhibition
HPA23 inhibition ([4]; 19 μg/ml): 65%
HPA23 inhibition ([4]; 40 μg/ml): 80%
inhibition of pancreatic DNase [5]: does not inhibit
inhibition of pancreatic RNase [6]: does not inhibit
inhibition of E. Coli RNase H [7]: does not inhibit
dose required to inhibit the cell growth relative to the one blocking RT activity [8]: twenty times higher
half life [9]: < 20 min
absolute numbers of T4 + cells and T4 /T8 ratio [10]: did not change significantly
Kaposi's sarcoma evolution ([11]; patient 3, 4 months outcome): stabilized their mucosal evolutive K.S., without regression
opportunistic infections ([11]; patient one, one year after the end of HPA23 therapy): did not present anymore other opportunistic infections
recovery of the platelet count to the pretreatment value (each adult patient): between 21st day and the 45th day after
platelet toxicity (four patients): some platelet toxicity in three out of four cases
renal toxicity (four patients): No new renal toxicity was observed
recovery of hepatic transaminases to the pretreatment range (patients 2, 3 and 4): ≤ 21 days
elevations of the hepatic transaminases (patients 2, 3 and 4 during treatment): 2 ×normal value
inhibition of E. Coli DNA polymerases [12]: strong inhibitor
inhibition of E. Coli RNA polymerases [13]: strong inhibitor
inhibition of mammalian cellular DNA polymerases [14]: strong inhibitor
inhibition of mouse α DNA polymerase [15]: inhibitor
effect on β DNA polymerase [16]: without any effect
inhibition of MLV reverse transcriptase [17]: competitive inhibitor
protection against leukemia [18]: protects
activity against lethal encephalomyocarditis infections [19]: some activity
mortality [20]: reduces the mortality
occurrence of spontaneous mammary tumors [21]: reduces the occurance of spontaneous mammary tumors
disease / incubation period [22]: can prevent disease or prolong the incubation period
effect on NK and ADCC function [23]: stimulating agent
LAV detection in T cell cultures ([24]; patient 1, during each period of treatment, I.V bolus, 1 mg/kg to 3.3 mg/kg): LAV could no longer be detected
LAV isolation, even after cocultivation ([24]; patients 1 and 2, one month after the end of the treatment): LAV was not isolated
LAV detection in T cell cocultures ([24]; patients 2, 3 and 4, 30 days after the end of the treatment): LAV was again detected in the T cell cocultures in two of the three patients (3 and 4) at a very low level
LAV isolation from primary cultures and cocultures of patient T cells ([24]; patients 2, 3 and 4, following two weeks treatment, 200 mg IV infusion per day during 15 days): no virus (LAV) was isolated
